Measurements: ChEMBL document CHEMBL1130964, “Naphthoquinone analogs as inactivators of cdc25 phosphatase” (1998)

Tests used:
Type in all cases: functional
SK-HEP1 [1] = test: The compound was evaluated for the percent cell cycle fraction when human hepatoma SK hep-1 cells were treated with the compound for 24 hours at a concentration of 4 uM in the G2/M phase of cell cycle
Homo sapiens [2] = species: Homo sapiens; test: The compound was evaluated for the percent cell cycle fraction when human hepatoma SK hep-1 cells were treated with the compound for 12 hours at a concentration of 4 uM in the S phase of cell cycle
SK-HEP1 [3] = test: The compound was evaluated for the percent cell cycle fraction when human hepatoma SK hep-1 cells were treated with the compound for 0 hr at a concentration of 4 uM in the G1 phase of cell cycle
Homo sapiens [4] = species: Homo sapiens; test: The compound was evaluated for the percent cell cycle fraction when human hepatoma SK hep-1 cells were treated with the compound for 0 hr at a concentration of 4 uM in the S phase of cell cycle
SK-HEP1 [5] = test: The compound was evaluated for the percent cell cycle fraction when human hepatoma SK hep-1 cells were treated with the compound for 12 hours at a concentration of 4 uM in the G2/M phase of cell cycle
SK-HEP1 [6] = test: The compound was evaluated for the percent cell cycle fraction when human hepatoma SK hep-1 cells were treated with the compound for 6 hours at a concentration of 4 uM in the S phase of cell cycle
SK-HEP1 [7] = test: The compound was evaluated for the percent cell cycle fraction when human hepatoma SK hep-1 cells were treated with the compound for 0 hr at a concentration of 4 uM in the G2/M phase of cell cycle
Homo sapiens [8] = species: Homo sapiens; test: The compound was evaluated for the percent cell cycle fraction when human hepatoma SK hep-1 cells were treated with the compound for 24 hours at a concentration of 4 uM in the G1 phase of cell cycle
Homo sapiens [9] = species: Homo sapiens; test: The compound was evaluated for the percent cell cycle fraction when human hepatoma SK hep-1 cells were treated with the compound for 6 hours at a concentration of 4 uM in the G2/M phase of cell cycle
SK-HEP1 [10] = test: The compound was evaluated for the percent cell cycle fraction when human hepatoma SK hep-1 cells were treated with the compound for 12 hours at a concentration of 4 uM in the G1 phase of cell cycle
SK-HEP1 [11] = test: The compound was evaluated for the percent cell cycle fraction when human hepatoma SK hep-1 cells were treated with the compound for 24 hours at a concentration of 4 uM in the S phase of cell cycle
Homo sapiens [12] = species: Homo sapiens; test: The compound was evaluated for the percent cell cycle fraction when human hepatoma SK hep-1 cells were treated with the compound for 6 hours at a concentration of 4 uM in the G1 phase of cell cycle

SMILES: O=C1C=CC(=O)c2c(O)c(Cl)c(Cl)c(O)c21
- Cell cycle fraction (SK-HEP1 [1]): 16%
- Cell cycle fraction (Homo sapiens [2]): 14%
- Cell cycle fraction (SK-HEP1 [3]): 48%
- Cell cycle fraction (Homo sapiens [4]): 21%
- Cell cycle fraction (SK-HEP1 [5]): 16%
- Cell cycle fraction (SK-HEP1 [6]): 20%
- Cell cycle fraction (SK-HEP1 [7]): 31%
- Cell cycle fraction (Homo sapiens [8]): 71%
- Cell cycle fraction (Homo sapiens [9]): 26%
- Cell cycle fraction (SK-HEP1 [10]): 70%
- Cell cycle fraction (SK-HEP1 [11]): 13%
- Cell cycle fraction (Homo sapiens [12]): 54%
